Tests used:
[1] = tested on: M1; conditions: Figure 1; published data, reference numbers not given; cited from earlier work
[2] = biological target: M2R; conditions: Figure 1, M2R antagonists; published data, reference numbers not given; cited from earlier work
[3] = biological target: T1, hM3R (Homo sapiens, UniProt P20309); test: Radioligand competition binding, [3H]-scopolamine (N-methyl), CHO cell membranes, hM3R; conditions: mean ± SD, n = 3; membranes from CHO cells transfected with hM3R; read-out: Receptor Ki M3
T1 construct: expressed in transfected cells; host or cells: CHO cell membranes

[4] = biological target: T2, hM1R (Homo sapiens, UniProt P11229); test: Radioligand competition binding, [3H]-scopolamine (N-methyl), CHO cell membranes, hM1R; conditions: mean ± SD, n = 3; membranes from CHO cells transfected with hM1R; read-out: Receptor Ki M1
T2 construct: expressed in transfected cells; host or cells: CHO cell membranes
T2 sequence (P11229 1-460): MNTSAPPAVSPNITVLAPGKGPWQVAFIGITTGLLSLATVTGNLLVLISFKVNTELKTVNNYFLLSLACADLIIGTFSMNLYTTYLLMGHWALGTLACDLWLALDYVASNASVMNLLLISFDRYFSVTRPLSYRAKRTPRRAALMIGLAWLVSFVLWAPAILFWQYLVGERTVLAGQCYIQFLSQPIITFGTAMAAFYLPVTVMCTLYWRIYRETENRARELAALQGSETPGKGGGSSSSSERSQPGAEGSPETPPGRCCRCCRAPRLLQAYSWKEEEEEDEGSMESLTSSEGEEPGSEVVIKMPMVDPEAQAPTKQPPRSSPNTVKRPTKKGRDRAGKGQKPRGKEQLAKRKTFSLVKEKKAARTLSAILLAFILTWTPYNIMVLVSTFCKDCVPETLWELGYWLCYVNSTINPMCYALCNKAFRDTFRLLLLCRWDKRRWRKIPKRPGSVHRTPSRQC

[5] = biological target: T3, hM5R (Homo sapiens, UniProt P08912); test: Radioligand competition binding, [3H]-scopolamine (N-methyl), CHO cell membranes, hM5R; conditions: mean ± SD, n = 3; membranes from CHO cells transfected with hM5R; read-out: Receptor Ki M5
T3 construct: expressed in transfected cells; host or cells: CHO cell membranes
T3 sequence (P08912 1-532): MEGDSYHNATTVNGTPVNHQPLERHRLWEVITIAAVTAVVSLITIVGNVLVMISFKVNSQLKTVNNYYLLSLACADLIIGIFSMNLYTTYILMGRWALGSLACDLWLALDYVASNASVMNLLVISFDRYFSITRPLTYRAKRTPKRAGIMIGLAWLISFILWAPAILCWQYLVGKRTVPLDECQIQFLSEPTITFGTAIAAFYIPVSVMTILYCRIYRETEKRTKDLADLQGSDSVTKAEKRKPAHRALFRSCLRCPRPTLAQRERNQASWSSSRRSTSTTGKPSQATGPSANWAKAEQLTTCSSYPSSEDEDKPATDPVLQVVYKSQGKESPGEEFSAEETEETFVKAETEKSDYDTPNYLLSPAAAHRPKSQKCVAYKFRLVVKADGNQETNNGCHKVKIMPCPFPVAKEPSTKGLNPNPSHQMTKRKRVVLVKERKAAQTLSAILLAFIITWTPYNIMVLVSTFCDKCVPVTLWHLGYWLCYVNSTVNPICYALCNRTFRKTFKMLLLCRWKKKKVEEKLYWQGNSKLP

[6] = biological target: T4, hM4R (Homo sapiens, UniProt P08173); test: Radioligand competition binding, [3H]-scopolamine (N-methyl), CHO cell membranes, hM4R; conditions: mean ± SD, n = 3; membranes from CHO cells transfected with hM4R; read-out: Receptor Ki M4
T4 construct: expressed in transfected cells; host or cells: CHO cell membranes
T4 sequence (P08173 1-479): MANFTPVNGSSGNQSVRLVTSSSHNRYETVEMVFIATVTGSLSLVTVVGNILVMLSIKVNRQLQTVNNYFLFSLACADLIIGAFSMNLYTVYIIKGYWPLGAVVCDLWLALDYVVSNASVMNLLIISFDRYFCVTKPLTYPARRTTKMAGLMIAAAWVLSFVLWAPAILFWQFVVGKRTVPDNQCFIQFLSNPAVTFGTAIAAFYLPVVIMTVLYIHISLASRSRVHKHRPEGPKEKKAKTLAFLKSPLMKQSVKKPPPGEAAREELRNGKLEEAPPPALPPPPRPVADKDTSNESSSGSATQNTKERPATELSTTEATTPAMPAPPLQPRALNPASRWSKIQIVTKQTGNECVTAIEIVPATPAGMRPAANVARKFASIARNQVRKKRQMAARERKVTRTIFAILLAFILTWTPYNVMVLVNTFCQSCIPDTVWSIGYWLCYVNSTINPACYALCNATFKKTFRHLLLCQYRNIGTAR

[7] = literature statement, reference numbers not given; cited from earlier work
[8] = tested on: M3; conditions: Figure 1; published data, reference numbers not given; cited from earlier work
[9] = tested on: M5; conditions: Figure 1; published data, reference numbers not given; cited from earlier work
[10] = tested on: M4; conditions: Figure 1; published data, reference numbers not given; cited from earlier work
[11] = biological target: T5, M2R (Homo sapiens, UniProt P08172); test: BRET-based TRUPATH GoA activation assay, antagonism of carbachol-induced G protein activation; type: cell-based; conditions: for mode of antagonism of carbachol-induced G protein activation: TRUPATH GoA assay
T5 sequence (P08172 1-466): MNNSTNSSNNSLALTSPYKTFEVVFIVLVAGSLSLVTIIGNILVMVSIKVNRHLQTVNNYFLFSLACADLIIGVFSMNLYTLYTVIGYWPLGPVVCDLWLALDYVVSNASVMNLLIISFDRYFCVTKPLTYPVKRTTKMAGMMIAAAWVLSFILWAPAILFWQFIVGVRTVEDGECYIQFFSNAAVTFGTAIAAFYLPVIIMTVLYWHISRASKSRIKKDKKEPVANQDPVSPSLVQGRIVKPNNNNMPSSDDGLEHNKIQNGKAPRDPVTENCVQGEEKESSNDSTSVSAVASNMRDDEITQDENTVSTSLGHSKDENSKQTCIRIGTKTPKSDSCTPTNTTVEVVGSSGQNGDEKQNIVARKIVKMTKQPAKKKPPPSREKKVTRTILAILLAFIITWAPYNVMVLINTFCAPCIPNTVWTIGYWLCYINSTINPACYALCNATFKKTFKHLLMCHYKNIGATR

[12] = biological target: T6, hM2R (Homo sapiens, UniProt P08172); test: Radioligand competition binding, [3H]-scopolamine (N-methyl), CHO cell membranes, hM2R; conditions: mean ± SD, n = 3; membranes from CHO cells transfected with hM2R; read-out: Receptor Ki M2
T6 construct: expressed in transfected cells; host or cells: CHO cell membranes
T6 sequence (P08172 1-466): T5 sequence (P08172 1-466)

T1 sequence (P20309 whole entry): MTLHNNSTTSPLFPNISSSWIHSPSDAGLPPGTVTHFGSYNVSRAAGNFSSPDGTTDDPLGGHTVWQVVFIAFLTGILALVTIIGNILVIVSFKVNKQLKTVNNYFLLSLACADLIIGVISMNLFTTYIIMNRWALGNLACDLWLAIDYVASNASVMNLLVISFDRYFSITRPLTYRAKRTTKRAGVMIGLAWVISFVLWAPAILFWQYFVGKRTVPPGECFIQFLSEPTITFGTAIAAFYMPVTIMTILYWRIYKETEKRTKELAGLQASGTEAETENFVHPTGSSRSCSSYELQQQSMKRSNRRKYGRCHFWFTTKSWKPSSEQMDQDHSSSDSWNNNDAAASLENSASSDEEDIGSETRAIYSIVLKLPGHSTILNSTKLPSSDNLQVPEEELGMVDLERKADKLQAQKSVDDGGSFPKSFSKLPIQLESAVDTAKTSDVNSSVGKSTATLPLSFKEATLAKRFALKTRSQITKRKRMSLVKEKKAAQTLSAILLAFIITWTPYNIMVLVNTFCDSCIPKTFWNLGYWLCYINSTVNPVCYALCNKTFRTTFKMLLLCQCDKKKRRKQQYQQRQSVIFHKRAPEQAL

| Compound | M2R selectivity M1/M2 [1] | Ki [2] [nM] | Ki [3] [nM] | Ki [4] [nM] | Ki [5] [nM] | Ki [6] [nM] | mode of antagonism of carbachol-induced G protein activation [11] | also measured |
| --- | --- | --- | --- | --- | --- | --- | --- | --- |
| CCCC(C)(C)C(=O)N(CC)CCCC1CCN(CC(=O)N2c3ccc(Cl)cc3C(=O)Nc3cccnc32)CC1 [Compound 1] | 35 | 30.2 |  |  |  |  |  |  |
| NCCOCCOCCNc1ccccc1C(=O)N1CCC(N2CCC(Cc3ccc(S(=O)(=O)c4cccc(Cl)c4)cc3)CC2)CC1 [Compound 30] |  |  | 496 ± 36 | 143 ± 11 | 8.6 ± 0.7 | 7.4 ± 0.6 |  |  |
| Cc1ccccc1C(=O)N1CCC(N2CCC(Cc3ccc(S(=O)(=O)c4ccc5c(c4)OCO5)cc3)CC2)CC1 [Compound 3] | 1400 | 0.02 |  |  |  |  |  | pharmacokinetics [7]: poor; M2R selectivity M3/M2 [8]: 730; M2R selectivity M5/M2 [9]: 280; M2R selectivity M4/M2 [10]: 37 |
| NCCOCCOCCC(=O)NCCOCCOCCNc1ccccc1C(=O)N1CCC(N2CCC(Cc3ccc(S(=O)(=O)c4cccc(Cl)c4)cc3)CC2)CC1.O=C(O)C(F)(F)F [Compound 32] |  |  | 373 ± 38 | 113 ± 8 | 8.5 ± 0.9 | 6.2 ± 0.9 | competitive antagonists | Log(IC50) ± SD (M), carbachol-induced GoA protein activation ([11]; log10 of IC50 (negative values), HEK 293T, compound 20 min, then 10 μM carbachol 15 min, Hill-slope = 1, n = 3): –6.97 ± 0.12 M; Ki [12]: 1.1 ± 0.1 nM |
| CCN(CC)CC1CCCCN1CC(=O)N1c2ccccc2C(=O)Nc2cccnc21 (stereo not drawn) [Compound 2] |  | 105 |  |  |  |  |  |  |
| Nc1ccccc1C(=O)N1CCC(N2CCC(Cc3ccc(S(=O)(=O)c4cccc(Cl)c4)cc3)CC2)CC1 [Compound 28] |  |  |  | 425 ± 32 |  | 9.4 ± 1.1 | competitive antagonists | oral bioavailability [7]: good |
